Test results as given in patent publication US9980943B2, “Methods of treating muscular dystrophy” (BOARD OF REGENTS OF THE NEVADA SYSTEM OF HIGHER EDUCATION, …, priority 2013, dated 2018).

Assays:
Type in all cases: cell-based, mouse
[1] = test system: β-galactosidase in CMV-LacZ C2C12 myotubes; assay: CMV-LacZ secondary screen in C2C12 myotubes (β-Gal stabilizing assay); details: for CMV-LACZ in Myotubes (β-galactosidase activity relative to DMSO): CMV-LacZ C2C12 myotubes, 96-well format
How it was run: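 β-Gal level was the read-out, measured in a clonal C2C12 line expressing LacZ from a CMV promoter. Dose-response curves used six concentrations, 0.5 μM up to 40 μM, with duplicate points.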

[2] = test system: α7 integrin (LacZ reporter in α7βgal+/− myoblasts); assay: Myoblast α7+/LacZ integrin FDG assay (Burkin assay in myoblasts, 96-well); details: α7+/LacZ myoblasts, 96-well
[3] = test system: α7 integrin (LacZ reporter in α7+/LacZ myotubes); assay: Myotube α7 integrin FDG assay (Burkin assay in myotubes, 96-well); details: myotubes
[4] = 5 uM, C2C12 CMV-LacZ myotubes, fold relative to DMSO
[5] = 10 uM, C2C12 CMV-LacZ myotubes, fold relative to DMSO
[6] = 20 uM, C2C12 CMV-LacZ myotubes, fold relative to DMSO
[7] = 40 uM, C2C12 CMV-LacZ myotubes, fold relative to DMSO

Structure (SMILES) | CMV-LACZ in Myotubes, signal relative to DMSO [1, 4] | CMV-LACZ in Myotubes, signal relative to DMSO [1, 5] | CMV-LACZ in Myotubes, signal relative to DMSO [1, 6] | CMV-LACZ in Myotubes, signal relative to DMSO [1, 7] | CMV-LACZ in Myotubes (β-galactosidase activity relative to DMSO) ([1]; 5 uM) | CMV-LACZ in Myotubes (β-galactosidase activity relative to DMSO) ([1]; 10 uM) | CMV-LACZ in Myotubes (β-galactosidase activity relative to DMSO) ([1]; 20 uM) | CMV-LACZ in Myotubes (β-galactosidase activity relative to DMSO) ([1]; 40 uM) | Burkin Assay in Myoblasts, value relative to DMSO ([2]; 0.5 uM) | Burkin Assay in Myoblasts, value relative to DMSO ([2]; 1 uM) | Burkin Assay in Myoblasts, value relative to DMSO ([2]; 5 uM) | Burkin Assay in Myoblasts, value relative to DMSO ([2]; 10 uM) | Burkin Assay in Myoblasts, value relative to DMSO ([2]; 20 uM) | Burkin Assay in Myoblasts, value relative to DMSO ([2]; 40 uM) | Burkin Assay in Myotubes (signal relative to DMSO) ([3]; 0.5 uM) | Burkin Assay in Myotubes (signal relative to DMSO) ([3]; 1 uM) | Burkin Assay in Myotubes (signal relative to DMSO) ([3]; 5 uM) | Burkin Assay in Myotubes (signal relative to DMSO) ([3]; 10 uM) | Burkin Assay in Myotubes (signal relative to DMSO) ([3]; 20 uM) | Burkin Assay in Myotubes (signal relative to DMSO) ([3]; 40 uM) | also measured
CC(=O)Nc1ccc(N(C(=O)c2cnccn2)C(C(=O)NC2CCCCC2)c2ccc(F)cc2)cc1 (centres unmarked) [MLS001225507-01] | 1.04 | 0.994 | 0.8655 | 0.8805 | – | – | – | – | – | – | – | – | – | – | – | – | – | – | – | – | Burkin Assay in Myoblasts, signal relative to DMSO ([2]; 0.5 uM): 1.0374; Burkin Assay in Myoblasts, signal relative to DMSO ([2]; 1 uM): 0.9444; Burkin Assay in Myoblasts, signal relative to DMSO ([2]; 5 uM): 0.9036; Burkin Assay in Myoblasts, signal relative to DMSO ([2]; 10 uM): 0.8292; Burkin Assay in Myoblasts, signal relative to DMSO ([2]; 20 uM): 0.8685; Burkin Assay in Myoblasts, signal relative to DMSO ([2]; 40 uM): 0.888; Burkin Assay in Myotubes, α7 integrin LacZ reporter signal relative to DMSO ([3]; 0.5 uM): 0.9321; Burkin Assay in Myotubes, α7 integrin LacZ reporter signal relative to DMSO ([3]; 1 uM): 0.6741; Burkin Assay in Myotubes, α7 integrin LacZ reporter signal relative to DMSO ([3]; 5 uM): 1.013; Burkin Assay in Myotubes, α7 integrin LacZ reporter signal relative to DMSO ([3]; 10 uM): 1.002; Burkin Assay in Myotubes, α7 integrin LacZ reporter signal relative to DMSO ([3]; 20 uM): 1.175; Burkin Assay in Myotubes, α7 integrin LacZ reporter signal relative to DMSO ([3]; 40 uM): 0.9539
O=C1CCc2cc(S(=O)(=O)Nc3ccc(C(F)(F)F)cc3)cc3c2N1CC3 [MLS001237320-01] | 0.9582 | 0.7569 | 0.9895 | 1.082 | – | – | – | – | – | – | – | – | – | – | – | – | – | – | – | – | Burkin Assay in Myoblasts, signal relative to DMSO ([2]; 0.5 uM): 0.9733; Burkin Assay in Myoblasts, signal relative to DMSO ([2]; 1 uM): 0.9848; Burkin Assay in Myoblasts, signal relative to DMSO ([2]; 5 uM): 0.9145; Burkin Assay in Myoblasts, signal relative to DMSO ([2]; 10 uM): 0.8495; Burkin Assay in Myoblasts, signal relative to DMSO ([2]; 20 uM): 0.9287; Burkin Assay in Myoblasts, signal relative to DMSO ([2]; 40 uM): 0.8187; Burkin Assay in Myotubes, α7 integrin LacZ reporter signal relative to DMSO ([3]; 0.5 uM): 0.9879; Burkin Assay in Myotubes, α7 integrin LacZ reporter signal relative to DMSO ([3]; 1 uM): 1.055; Burkin Assay in Myotubes, α7 integrin LacZ reporter signal relative to DMSO ([3]; 5 uM): 1.035; Burkin Assay in Myotubes, α7 integrin LacZ reporter signal relative to DMSO ([3]; 10 uM): 0.6554; Burkin Assay in Myotubes, α7 integrin LacZ reporter signal relative to DMSO ([3]; 20 uM): 0.9912; Burkin Assay in Myotubes, α7 integrin LacZ reporter signal relative to DMSO ([3]; 40 uM): 0.9787
COCCN(CC(=O)Nc1cccc(C)c1C)C(=O)C1CCN(S(=O)(=O)c2ccccc2)CC1 [MLS002156278-01] | – | – | – | – | 0.8694 | 1.096 | 0.9667 | 1.031 | 0.8597 | 0.9642 | 1.01 | 0.9653 | 0.8604 | 0.8246 | 1.005 | 0.9637 | 0.6908 | 0.9924 | 0.9719 | 1.025 | –
CNc1nnc(SCC(=O)c2cc(C)n(C3CC3)c2C)s1 [MLS002156485-01] | – | – | – | – | 0.9468 | 0.9523 | 1.115 | 0.9483 | 1.059 | 0.9382 | 0.9278 | 0.8752 | 1.052 | 1.026 | 1.0551 | 0.9807 | 1.2005 | 1.0687 | 1.057 | 1.156 | –
Cc1ccc(OCC(=O)N2CCN(S(=O)(=O)c3ccc4c(c3)OCCO4)CC2)c(C)c1 [MLS002158881-01] | – | – | – | – | – | – | – | – | – | – | – | – | – | – | – | – | – | – | – | – | fold induction at 5 µM ([1]; Mus musculus, C2C12, read-out: CMV-LACZ in Myotubes, signal relative to DMSO, 5 uM, C2C12 CMV-LacZ myotubes, fold relative to DMSO): 0.792; fold induction at 10 µM ([1]; Mus musculus, C2C12, read-out: CMV-LACZ in Myotubes, signal relative to DMSO, 10 uM, C2C12 CMV-LacZ myotubes, fold relative to DMSO): 0.827; fold induction at 20 µM ([1]; Mus musculus, C2C12, read-out: CMV-LACZ in Myotubes, signal relative to DMSO, 20 uM, C2C12 CMV-LacZ myotubes, fold relative to DMSO): 0.864; fold induction at 40 µM ([1]; Mus musculus, C2C12, read-out: CMV-LACZ in Myotubes, signal relative to DMSO, 40 uM, C2C12 CMV-LacZ myotubes, fold relative to DMSO): 0.81; fold induction at 0.5 µM ([2]; Mus musculus, Myoblast, 48 h, 0.5 uM, read-out: Burkin Assay in Myoblasts, signal relative to DMSO): 0.888; fold induction at 1 µM ([2]; Mus musculus, Myoblast, 48 h, 1 uM, read-out: Burkin Assay in Myoblasts, signal relative to DMSO): 0.838; fold induction at 5 µM ([2]; Mus musculus, Myoblast, 48 h, 5 uM, read-out: Burkin Assay in Myoblasts, signal relative to DMSO): 0.989; fold induction at 10 µM ([2]; Mus musculus, Myoblast, 48 h, 10 uM, read-out: Burkin Assay in Myoblasts, signal relative to DMSO): 1.02; fold induction at 20 µM ([2]; Mus musculus, Myoblast, 48 h, 20 uM, read-out: Burkin Assay in Myoblasts, signal relative to DMSO): 1.12; fold induction at 40 µM ([2]; Mus musculus, Myoblast, 48 h, 40 uM, read-out: Burkin Assay in Myoblasts, signal relative to DMSO): 1.21; fold induction at 0.5 µM ([3]; Mus musculus, Myotube, 0.5 uM, read-out: Burkin Assay in Myotubes, α7 integrin LacZ reporter signal relative to DMSO): 0.896; fold induction at 1 µM ([3]; Mus musculus, Myotube, 1 uM, read-out: Burkin Assay in Myotubes, α7 integrin LacZ reporter signal relative to DMSO): 0.865; fold induction at 5 µM ([3]; Mus musculus, Myotube, 5 uM, read-out: Burkin Assay in Myotubes, α7 integrin LacZ reporter signal relative to DMSO): 0.67; fold induction at 10 µM ([3]; Mus musculus, Myotube, 10 uM, read-out: Burkin Assay in Myotubes, α7 integrin LacZ reporter signal relative to DMSO): 0.773; fold induction at 20 µM ([3]; Mus musculus, Myotube, 20 uM, read-out: Burkin Assay in Myotubes, α7 integrin LacZ reporter signal relative to DMSO): 1.2; fold induction at 40 µM ([3]; Mus musculus, Myotube, 40 uM, read-out: Burkin Assay in Myotubes, α7 integrin LacZ reporter signal relative to DMSO): 1
CC1CCCCC12NC(=O)N(CC(=O)OCc1cccc(F)c1)C2=O (centres unmarked) [MLS002161350-01] | 0.906 | 0.9679 | 0.8847 | 1.046 | – | – | – | – | – | – | – | – | – | – | – | – | – | – | – | – | Burkin Assay in Myoblasts, signal relative to DMSO ([2]; 0.5 uM): 0.9404; Burkin Assay in Myoblasts, signal relative to DMSO ([2]; 1 uM): 0.9236; Burkin Assay in Myoblasts, signal relative to DMSO ([2]; 5 uM): 0.9531; Burkin Assay in Myoblasts, signal relative to DMSO ([2]; 10 uM): 0.9514; Burkin Assay in Myoblasts, signal relative to DMSO ([2]; 20 uM): 0.822; Burkin Assay in Myoblasts, signal relative to DMSO ([2]; 40 uM): 0.8262; Burkin Assay in Myotubes, α7 integrin LacZ reporter signal relative to DMSO ([3]; 0.5 uM): 0.9844; Burkin Assay in Myotubes, α7 integrin LacZ reporter signal relative to DMSO ([3]; 1 uM): 1.177; Burkin Assay in Myotubes, α7 integrin LacZ reporter signal relative to DMSO ([3]; 5 uM): 0.7783; Burkin Assay in Myotubes, α7 integrin LacZ reporter signal relative to DMSO ([3]; 10 uM): 0.987; Burkin Assay in Myotubes, α7 integrin LacZ reporter signal relative to DMSO ([3]; 20 uM): 1.049; Burkin Assay in Myotubes, α7 integrin LacZ reporter signal relative to DMSO ([3]; 40 uM): 1.116
O=C(CSc1nnc(C2CC2)n1C1CC1)c1cccs1 [MLS002161757-01] | – | – | – | – | 0.919 | 1.102 | 1.153 | 1.256 | 0.9614 | 0.892 | 0.9113 | 0.9135 | 1.009 | 1.151 | 0.8459 | 1.07 | 1.092 | 1.06 | 0.9795 | 1.146 | –
COCc1c(C(=O)OCc2nc3ccsc3c(=O)[nH]2)oc2ccccc12 [MLS002163386-01] | – | – | – | – | 0.9749 | 1.196 | 0.9465 | 1.066 | 1.0508 | 0.9023 | 1.034 | 0.888 | 1.014 | 0.9388 | 1.104 | 1.048 | 1.112 | 1.064 | 1.064 | 1.02 | –
